Where “and” joins values, the source holds several entries; their conditions need not be identical. Identical values can stand only once. Like-named read-outs stand apart in the source and are kept apart here.

The results in this text go back to patent US9018199B2, “Transition metal complexes for inhibiting resistance in the treatment of cancer and metastasis” (Ecole Polytechnique Federale de Lausanne (EPFL), priority 2006, dated 2015).

In test [1] the test system is Glutathione-S-Transferase. Description: Inhibition of Glutathione-S-Transferase activity in A549 cell lysates (glutathione-CDNB assay). Type of test: biochemical, human. The note with it: A549 lung carcinoma cell lysates exposed to 100 μM drug solution for 90 mins. The method, then: Human A549 lung carcinoma cells, known to express high levels of Glutathione-S-Transferase, were routinely grown in flasks with DMEM medium containing 4.5 g/l glucose, 10% foetal calf serum (FCS) and antibiotics at 37° C. and 6% CO2. When the cells are confluent, they are trypsinised and concentrated in a centrifuge at 4° C. The cells were then diluted in phosphate-buffer saline (PBS) containing protease inhibitor cocktail (final concentration of 1 μg/ml) and homogenised by repeatedly freezing in liquid nitrogen and thawing (4 cycles). The homogenised cell samples were centrifuged at 4° C. and the supernatant, which is the cell lysates, was separated. The cell lysates are stored at −56° C.
The Ru compounds are weighed, and dissolved in DMSO to 100 mM. […] The cell lysates were exposed to the drug solutions for 90 mins. Control, containing the cell lysates with water/0.1% DMSO was also prepared.
The GST activity in the treated cell lysates was determined using the glutathione-CDNB (1-chloro-2,4-dinitrobenzene) assay. Glutathione and CDNB were dissolved in deionised water and ethanol respectively to make up a 100 mM solutions. A developing solution, containing 50 mM phosphate buffer solution (pH 6.5), was prepared and was added 1% v/v, the 100 mM glutathione and 100 mM CDNB solutions such that their final concentrations are both 1 mM. The developing solution was added to a 96-well plate at 200 μl per well, followed by the treated cell lysates at 2 μl per well. The absorbance at 340 nm was monitored continuously for 5 mins at 15 s intervals. The average slope of the change in absorbance was determined as a fraction of the control as the percentage of residual GST activity.

Test [2] concerns HT-29 colon carcinoma cell line. Description: Cell growth proliferation inhibition, MTT assay, HT29. Type of test: cell-based, human. The note with it: 72 hours exposure. The method, then:
(§1) When the cell are confluent, they are trypsinised and seeded in 48-well plates as monolayers for 24 h. […] The media is removed from the cell plates are the drug solutions applied in triplicate. A set of control cells, with media containing 1.0% DMSO, was left on each plate. The cells were exposed to the drugs for 72 hours. For […], (8) and (9), the Ru compounds are weighed, and dissolved directly in medium to 1600 μM, then serially diluted to make up 800 μ[…] solutions. Cell viability was determined using the standard MTT assay protocol, which allows the quantification of the mitochondrial activity in metabolically active cells. MTT (final concentration 0.2 mg/ml) was added to the cells for 2 h, then the culture medium was aspirated and the violet formazan precipitate dissolved in 0.1 N HCl in 2-propanol. The optical density, which is directly proportional to number of surviving cells, was quantified at 540 nm using a multiwell plate reader and the fraction of surviving cells was calculated from the absorbance of untreated control cells. Using the above protocol, the compounds were tested against human T47D and MCF-7 breast carcinoma, A549 lung carcinoma and HT-29 colon carcinoma cell lines (see FIG. 7).
For orientation: Tetrazolium dyes change colour on reduction, which living cells bring about.

Test [3] has as its system A549 lung carcinoma cell line. Description: Cell growth proliferation inhibition, MTT assay, A549. The format is cell-based, human. The following applies: A549 cells, 72 hours exposure. Here is the method: as §1
Test [4] has as its system T47D breast carcinoma cell line. Description: Cell growth proliferation inhibition, MTT assay, T47D. The format is cell-based, human. The note with it: T47D cells, 72 hours exposure. The method, then: as §1
For test [5], the system named is MCF-7 breast carcinoma cell line. In words: Cell growth proliferation inhibition, MTT assay, MCF7. The format is cell-based, human. The note with it: MCF7 cells, 72 hours exposure. Here is the method: as §1
The test system of test [6] is A2780 Human ovarian carcinoma. Description: IC50 on tumor cell lines, MTT test, A2780. The format is cell-based. The following applies: A2780, 3 days treatment, two separate experiments.
Protocol: (§2) IC50 values are determined as follows: Tumour cells are incubated in the appropriate complete medium at 37° C. and under controlled atmosphere (5% CO2). Test compounds are tested at doses in the range of 100 nM and 100 μM. Cytotoxicity is determined by the MTT test, by measuring cell viability as the cell metabolic capacity to transform the tetrazolium salt of MTT in the blue formazan, by mitochondrial dehydrogenases; the blue colour is read at 570 nm with a spectrophotometer (Alley M C, Scudiero D A, Monks A, Hursey A L, Czerwinski M J, Fine D L, Abbott B J, Mayo J G, Shoemaker R H, Boyd M R. Feasibility of drug screening with panels of human tumor cell lines using a microculture tetrazolium assay. Cancer Res 48: 598-601, 1988. Mosmann T. Rapid colorimetric assay for cellular growth and survival: application to proliferation and cytotoxicity assays. […] Briefly, on day 0, in 96-well plates, 2-4000 cells/well/100 μl complete medium are plated. On day 1, test compounds are added at the test concentrations of 10^−7 M; 3*10^−7 M; 10^−6 M; 3*10^−6 M; 10^−5 M; 3*10^−5M; 10^−4 M. Each concentration is studied in triplicate. Cell viability, as determined by the MTT test is done on Day 4, after 3 days treatment. Each well is added with 10 μl/100 μl MTT (prepared previously by dissolving 5 mg/ml MTT in PBS, sterilized with filters at a cut-off of 0.22 mm and stored at 4° C.). Plates are put in an incubator at 37° C. for 4 hrs, then medium is eliminated and each well is added with 200 μl DMSO (Sigma Chemical Co., USA). Plates are read with a spectrophotometer (Spectra count Packard Bell, Meriden, Conn., USA) at 570 nm wave length. IC50 is calculated with the GraphPad Prism4.
In test [7] the test system is A2780/CDDP Human ovarian carcinoma resistant to Cistplatin. Description: IC50 on tumor cell lines, MTT test, A2780/CDDP. The format is cell-based. The following applies: for IC50: read-out: IC50 values A2780/CDDP. Here is the method:
Tumor cell lines derived from human and mouse turnours listed below were stabilised for in vitro propagation.
IC50 values are determined as follows: Tumour cells are incubated in the appropriate complete medium at 37° C. and under controlled atmosphere (5% CO2). Test compounds are tested at doses in the range of 100 nM and 100 μM. Cytotoxicity is determined by the MTT test, by measuring cell viability as the cell metabolic capacity to transform the tetrazolium salt of MTT in the blue formazan, by mitochondrial dehydrogenases; the blue colour is read at 570 nm with a spectrophotometer (Alley M C, Scudiero D A, Monks A, Hursey A L, Czerwinski M J, Fine D L, Abbott B J, Mayo J G, Shoemaker R H, Boyd M R. Feasibility of drug screening with panels of human tumor cell lines using a microculture tetrazolium assay. Cancer Res 48: 598-601, 1988. Mosmann T. Rapid colorimetric assay for cellular growth and survival: application to proliferation and cytotoxicity assays. J Immunol Methods 65: 55-63, 1983). Briefly, on day 0, in 96-well plates, 2-4000 cells/well/100 μl complete medium are plated. On day 1, test compounds are added at the test concentrations of 10^−7 M; 3*10^−7 M; 10^−6 M; 3*10^−6 M; 10^−5 M; 3*10^−5M; 10^−4 M. Each concentration is studied in triplicate. Cell viability, as determined by the MTT test is done on Day 4, after 3 days treatment. Each well is added with 10 μl/100 μl MTT (prepared previously by dissolving 5 mg/ml MTT in PBS, sterilized with filters at a cut-off of […] and stored at 4° C.). Plates are put in an incubator at 37° C. for 4 hrs, then medium is eliminated and each well is added with 200 μl DMSO (Sigma Chemical Co., USA). Plates are read with a spectrophotometer (Spectra count Packard Bell, Meriden, Conn., USA) at 570 nm wave length. IC50 is calculated with the GraphPad Prism4.
The reported values are the most representative of two separate experiments.

In test [8] the test system is H460M Human lung carcinoma/metastatic. Description: IC50 on tumor cell lines, MTT test, H460M. Type of test: cell-based. The following applies: 3 days treatment, two separate experiments.
Protocol: as §2
Test [9] has as its system HT-29 Human colorectal carcinoma. In words: IC50 on tumor cell lines, MTT test, HT-29. Type of test: cell-based. The following applies: HT-29, 3 days treatment, two separate experiments.
Protocol: as §2
The subject of test [10] is MIA-PaCa-2 Human pancreatic cancer. In words: IC50 on tumor cell lines, MTT test, MIA PaCa-2. The note with it: MIA PaCa-2, 3 days treatment, two separate experiments. The format is cell-based.
Protocol: as §2
The test system of another test is TLX5 Mouse lymphona. Description: IC50 on tumor cell lines, MTT test, TLX5. The format is cell-based. The note with it: TLX5, 3 days treatment, two separate experiments.
In the next test the test system is TLX5 lymphona cells. In words: Survival time in an in vivo TLX5 lymphoma model. The note with it: for % increase vs Controls (mean survival time) / Mean survival time (days ± SD): TLX5 cells i.p. day 0 in CBA mice, treatment i.p. at day 3, Compound 3 at 200 mg/kg, Cisplatin 8 mg/kg; for Activity in vivo (in words): TLX5 lymphoma in mice, i.p., compound 3 given as suspension in carboxymethylcellulose. More on the design: species or system CBA brown-grey inbred mice. Here is the method: Tumour cells (TLX5, see above in Example 8) were derived from mouse tumours and stabilised for in vivo propagation. For the animal study, TLX5 lymphona cells were injected in the peritoneal cavity of CBA brown-grey inbred mice (Harlan-Nossan, San Giovanni al Natisone, Udine, Italy) at day 0. Test compounds were applied at day 3 at various doses, also by the intraperitoneal route, with each drug (test compound or reference drug) diluted in appropriate physiological solution and injected in a volume of 0.1 ml/10 g body weight.

[11] abbreviates: A2780/CDDP (Cisplatin-resistant), 3 days treatment, MTT test, two separate experiments.

Protocol for TLX5 Mouse lymphona: as §2

On to “(η^6-cymene)RuCl2(ethacrynic-propylamide-imidazole) [Compound 6]”, for which the “Residual GST activity (% control)” value in test [1] came to 23.70 ± 10.7 % control. The IC50 came to 39.1 µM in test [2] (HT29 cells), 34 µM in [3], 4.8 µM in [4] and 10.7 µM in test [5].
“(Ethacrynic-η^6:benzylamide)Ru(PTA)Cl2 [Compound 3]”: the “Residual GST activity (% control)” value in test [1] worked out at 63.57 ± 2.0 % control. In addition, the IC50 in test [2] (HT29 cells) is 50.7 µM; in test [3], 32.3 µM; in [4], 2.91 µM; in test [5], 19.9 µM; in test [6] it was 7.1 to 9.5 µM; in [7] (setting [11]), 4.6 to 5.3 µM. Besides, the IC50 in test [8] was 2.5 to 3.8 µM; in test [9], 2.3 to 3.8 µM; in test [10] it was 14.7 to 20.1 µM; with TLX5 Mouse lymphona it was 800 to 3000 nM. In test [7] (A2780/CDDP, MTT test), the “Activity against the Cisplatin-resistant cell line A2780/CDDP (in words)” value was “active”. In addition, the “% increase vs Controls (mean survival time)” value in the test with TLX5 lymphona cells was determined as 22%. In the test with TLX5 lymphona cells, the “Mean survival time (days ± SD)” value was 12.2 days and 12.2 ± 1.79 days. For the same compound, the “Activity in vivo (in words)” value in the test on TLX5 lymphona cells is given as “active in vivo”.
Regarding RAPTA-T, the IC50 was above 100 µM in test [6]; above 100 µM in test [7] (setting [11]); above 100 µM in test [8]; above 100 µM in [9]; above 100 µM in [10]; 64100 to 92900 nM in the test on TLX5 Mouse lymphona.
Consider “[(η^6-cymene)RuCl(PTA)(imidazolium-ethacrynic aide)]BF4^− [Compound 7]”, for which the “Residual GST activity (% control)” value in test [1] amounted to 62.58 ± 8.8 % control. Moreover, the IC50 in test [2] (HT29 cells) stood at 64.2 µM; in test [3], 65.1 µM; in test [4], 5.97 µM; in test [5], 19.9 µM.
Take `Cc1ccc(C(C)C)cc1.[Cl][Ru]([Cl])[PH]12CN3CN(CN(C3)C1)C2` [(η^6-cymene)Ru(PTA)Cl2, reference compound]: the IC50 was 436 µM in [2] (HT29 cells), 1030 µM in test [3], 1060 µM in test [4] and above 1600 µM in test [5].
With `C1N2CN3CN1CP(C2)C3.C=C(CC)C(=O)c1ccc(OCC(=O)OCCc2ccccc2)c(Cl)c1Cl.[Cl][Ru][Cl]` [Compound 4, (Ethacrynic-η^6:phenylethanoate)Ru(PTA)Cl2], the “Residual GST activity (% control)” value in test [1] is given as 42.77 ± 13.9 % control. Moreover, the IC50 was 106 µM in test [2] (HT29 cells); 66.7 µM in test [3]; 6.28 µM in test [4]; 105 µM in test [5]; around 30 µM in test [6]; 36.7 to 38.7 µM in [7] (setting [11]). The IC50 fell in the range of 29.1 to 31.5 µM in [8], 30 to 32.6 µM in test [9], 81.5 to 92.7 µM in test [10] and 3600 to 4300 nM in the test with TLX5 Mouse lymphona. The “Activity against the Cisplatin-resistant cell line A2780/CDDP (in words)” value in test [7] (A2780/CDDP, MTT test) is on record as “active”.
For the compound `N.N.[Cl][Pt][Cl]` [Cisplatin], the IC50 in test [6] is 10.5 to 11.8 µM; in test [7] (setting [11]), above 100 µM; in test [8] it was 1.3 to 3 µM; in [9], 4.9 to 32.6 µM; in test [10] it was 10.6 to 12.9 µM; in the test on TLX5 Mouse lymphona, 20 to 200 nM. The “% increase vs Controls (mean survival time)” value with TLX5 lymphona cells is 18%. In the test on TLX5 lymphona cells, the “Mean survival time (days ± SD)” value is on record as 11.8 ± 1.79 days. The “Activity in vivo (in words)” value with TLX5 lymphona cells is reported as “effective”.
Turning to “(η^6-cymene)Ru(PTA)(C6H6O4) [Compound 9]”, the IC50 in test [2] (HT29 cells) is 265 µM; in test [3], 1570 µM; in [4], 1090 µM; in test [5], above 1600 µM.
Consider (η^6 cymene)Ru(PTA)(C2O4) [Compound 8], for which the IC50 in [2] (HT29 cells) was 267 µM; in test [3], 1130 µM; in test [4], 1170 µM; in test [5], above 1600 µM.
For `C=C(CC)C(=O)c1ccc(OCC(=O)O)c(Cl)c1Cl` [Ethacrynic acid, reference compound], the IC50 in test [2] (Homo sapiens, HT-29, HT29 cells) is 73.5 µM; in [3] (Homo sapiens) it was 50.7 µM; in [4] (Homo sapiens) it was 7.73 µM; in test [5] (Homo sapiens), 66 µM; in test [6] (Homo sapiens, 72 h), 91.1 to 94.8 µM; in [7] (Homo sapiens, A2780/CDDP, 72 h) it was 84.3 to 97.6 µM. The IC50 in test [8] (Homo sapiens, 72 h) was 58.1 to 63.3 µM; in [9] (Homo sapiens, 72 h) it was 35.2 to 44 µM; in [10] (Homo sapiens, 72 h), above 100 µM; in the test with TLX5 Mouse lymphona (Mus musculus, TLX-5, 72 h), 1300 to 1800 nM.
